This is an account of results in ChEMBL document CHEMBL1126307, “Conformational studies of muscarone analogues: X-ray analysis and molecular mechanics calculations” (J Med Chem, 1992).

What all share (assay type): functional
Experiment [1] is filed under the species Rattus norvegicus. The experiment can be described thus: Muscarinic potency was measured in rat jejunum. Conditions: for EC50: Rattus norvegicus, Jejunum.
The species entered for experiment [2] is Cavia porcellus. Description: Muscarinic potency was measured in guinea pig ileum. As to conditions: for EC50: Cavia porcellus, Ileum.
The species entered for experiment [3] is Rattus norvegicus. The experiment can be described thus: Muscarinic potency was measured in rat bladder. Conditions: for EC50: Rattus norvegicus.
The species entered for experiment [4] is Cavia porcellus. Description: Muscarinic potency was measured in guinea pig atria. Conditions: for EC50: Cavia porcellus.
Experiment [5] can be described thus: Eudismic ratio was measured.

With `C[C@@H]1O[C@H](C[N+](C)(C)C)CC1=O` [listing 1 of 2 here], the “-Log EC50” value in the experiment listed under Rattus norvegicus [1] is 7.89; in the experiment filed under Cavia porcellus [2], 9; in the experiment filed under Rattus norvegicus [3], 7.28; in the experiment listed under Cavia porcellus [4] it was 8.62.

A word on the EC50: it is the concentration giving half of the maximal effect. Take `C[C@H]1OC[C@@H](C[N+](C)(C)C)O1` [listing 1 of 2 here]: the EC50 in the experiment filed under Rattus norvegicus [1] is 26.3 nM; in the experiment listed under Cavia porcellus [2], 4.17 nM; in the experiment listed under Rattus norvegicus [3] it was 123 nM; in the experiment filed under Cavia porcellus [4] it was 9.55 nM.

Take `C[C@H]1CC[C@@H](C[N+](C)(C)C)O1`: the EC50 is 646 nM in the experiment filed under Rattus norvegicus [1], 135 nM in the experiment filed under Cavia porcellus [2], 2400 nM in the experiment filed under Rattus norvegicus [3] and 1320 nM in the experiment filed under Cavia porcellus [4].

On to `C[C@@H]1O[C@H](C[N+](C)(C)C)CS1` [listing 1 of 2 here], for which the EC50 in the experiment filed under Rattus norvegicus [1] is 28.2 nM; in the experiment filed under Cavia porcellus [2], 5.89 nM; in the experiment listed under Rattus norvegicus [3], 229 nM; in the experiment listed under Cavia porcellus [4] it was 42.7 nM.

As to `C=C1C[C@@H](C[N+](C)(C)C)O[C@H]1C`, the “-Log EC50” value in the experiment filed under Rattus norvegicus [1] was found to be 6.78; in the experiment filed under Cavia porcellus [2] it was 7.38; in the experiment filed under Rattus norvegicus [3], 6.13; in the experiment listed under Cavia porcellus [4], 6.1.

Consider `C[C@@H]1O[C@H](C[N+](C)(C)C)CC1=O` [listing 2 of 2 here], for which the ER in experiment [5] was found to be 3.1.

On to `C[C@@H]1O[C@H](C[N+](C)(C)C)CS1` [listing 2 of 2 here], for which the ER in experiment [5] was 170.

For `C[C@H]1OC[C@@H](C[N+](C)(C)C)O1` [listing 2 of 2 here], in experiment [5], the ER was found to be 59.

For `C[C@@H]1O[C@H](C[N+](C)(C)C)CC1O` (mixture of isomers), the EC50 in the experiment listed under Rattus norvegicus [1] was 155 nM; in the experiment listed under Cavia porcellus [2], 31.6 nM; in the experiment filed under Rattus norvegicus [3], 575 nM; in the experiment listed under Cavia porcellus [4], 58.9 nM. In experiment [5], the ER worked out at 331.

In the case of `C[C@@H]1O[C@H](C[N+](C)(C)C)CS1` (mixture of isomers) [listing 1 of 2 here], the “-Log EC50” value in the experiment listed under Rattus norvegicus [1] came to 7.55; in the experiment listed under Cavia porcellus [2] it was 8.23; in the experiment filed under Rattus norvegicus [3] it was 6.64; in the experiment listed under Cavia porcellus [4], 7.37.

Consider `C[C@@H]1O[C@H](C[N+](C)(C)C)CS1` (mixture of isomers) [listing 2 of 2 here], for which the ER in experiment [5] stood at 170.

As for `C[C@@H]1O[C@H](C[N+](C)(C)C)CC1=O` (racemic) [listing 1 of 2 here], the EC50 in the experiment listed under Rattus norvegicus [1] is 12.9 nM; in the experiment listed under Cavia porcellus [2], 1 nM; in the experiment listed under Cavia porcellus [4] it was 2.4 nM.

Take `C[C@H]1OC[C@@H](C[N+](C)(C)C)O1` (racemic) [listing 1 of 2 here]: the “-Log EC50” value in the experiment listed under Rattus norvegicus [1] was 7.58; in the experiment listed under Cavia porcellus [2] it was 8.38; in the experiment filed under Rattus norvegicus [3], 6.91; in the experiment listed under Cavia porcellus [4], 8.02.

Turning to `C[C@H]1CC[C@@H](C[N+](C)(C)C)O1` (racemic), the “-Log EC50” value was 6.19 in the experiment filed under Rattus norvegicus [1], 6.87 in the experiment filed under Cavia porcellus [2], 5.62 in the experiment filed under Rattus norvegicus [3] and 5.88 in the experiment filed under Cavia porcellus [4].

For `CN1OC(C[N+](C)(C)C)CC1=O` (racemic) [listing 1 of 2 here], the “-Log EC50” value in the experiment listed under Rattus norvegicus [1] amounted to 7.13; in the experiment filed under Cavia porcellus [2], 7.95; in the experiment filed under Rattus norvegicus [3], 6.44; in the experiment listed under Cavia porcellus [4] it was 7.62.

As for `C=C1C[C@@H](C[N+](C)(C)C)O[C@H]1C` (racemic), the EC50 was 166 nM in the experiment filed under Rattus norvegicus [1], 41.7 nM in the experiment filed under Cavia porcellus [2], 741 nM in the experiment filed under Rattus norvegicus [3] and 794 nM in the experiment filed under Cavia porcellus [4].

In the case of `CN1OC(C[N+](C)(C)C)CC1=O` (racemic) [listing 2 of 2 here], the ER in experiment [5] was 2.5.

For the compound `C[C@@H]1O[C@H](C[N+](C)(C)C)CC1=O` (racemic) [listing 2 of 2 here], the ER in experiment [5] came to 3.1.

For the compound `C[C@H]1OC[C@@H](C[N+](C)(C)C)O1` (racemic) [listing 2 of 2 here], the ER in experiment [5] was 59.

For `CN1OC(C[N+](C)(C)C)CC1=O` (stereo in doubt; 4) [listing 1 of 2 here], the EC50 in the experiment filed under Rattus norvegicus [1] was 74.1 nM; in the experiment listed under Cavia porcellus [2], 11.2 nM; in the experiment filed under Rattus norvegicus [3] it was 363 nM; in the experiment listed under Cavia porcellus [4] it was 24 nM.

Consider `CN1OC(C[N+](C)(C)C)CC1=O` (stereo in doubt; 4) [listing 2 of 2 here], for which the ER in experiment [5] turned out to be 2.5.

Consider `C[C@@H]1O[C@H](C[N+](C)(C)C)C[C@H]1O` [MUSCARINE], for which the EC50 in the experiment listed under Rattus norvegicus [1] was 155 nM; in the experiment listed under Cavia porcellus [2] it was 31.6 nM; in the experiment listed under Rattus norvegicus [3] it was 575 nM; in the experiment filed under Cavia porcellus [4] it was 58.9 nM. In addition, the ER in experiment [5] stood at 331.
